Measurements as given in patent US10112935B2, “Indazolyl thiadiazolamines and related compounds for inhibition of Rho-associated protein kinase and the treatment of disease” (Lycera Corporation, priority 2015, dated 2018).

Key:
[1] = molecular target: GST-tagged human ROCK1 catalytic domain 1-477 (Homo sapiens (Human), UniProt Q13464); test: Inhibition of Rho-associated protein kinase isoform 1 (LANCE Ultra ULight-CREBtide FRET kinase assay); format: biochemical; conditions: 30 μM was the highest concentration analyzed
Chain of GST-tagged human ROCK1 catalytic domain 1-477 (Q13464 1-477): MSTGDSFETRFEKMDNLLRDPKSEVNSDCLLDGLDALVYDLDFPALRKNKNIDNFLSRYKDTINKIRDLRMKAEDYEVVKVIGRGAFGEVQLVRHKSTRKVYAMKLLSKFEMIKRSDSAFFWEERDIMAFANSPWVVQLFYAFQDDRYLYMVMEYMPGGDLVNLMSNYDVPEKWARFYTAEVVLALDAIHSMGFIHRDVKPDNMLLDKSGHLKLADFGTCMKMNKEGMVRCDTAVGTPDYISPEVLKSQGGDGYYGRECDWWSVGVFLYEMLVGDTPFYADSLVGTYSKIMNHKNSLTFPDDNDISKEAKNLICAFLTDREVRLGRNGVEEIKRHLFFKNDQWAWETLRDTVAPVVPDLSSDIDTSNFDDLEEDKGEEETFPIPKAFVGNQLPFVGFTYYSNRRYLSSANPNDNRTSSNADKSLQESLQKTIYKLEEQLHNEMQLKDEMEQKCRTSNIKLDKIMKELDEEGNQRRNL
Summary of the method: (§1)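 Baculovirus-expressed kinase phosphorylated ULight-CREBtide for 90 min at room temperature before the reaction was stopped with 10 mM EDTA. Phospho-substrate was detected by TR-FRET with 1 nM Europium-anti-phospho-CREB (Ser133) antibody after 60 min at room temperature.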

[2] = molecular target: GST-tagged human ROCK2 catalytic domain 1-553 (Homo sapiens (Human), UniProt O75116); test: Inhibition of Rho-associated protein kinase isoform 2 (LANCE Ultra ULight-CREBtide FRET kinase assay); format: biochemical; conditions: for IC50: 30 μM was the highest concentration analyzed; for Selectivity for ROCK2 over ROCK1 (IC50 ROCK1 / IC50 ROCK2): selectivity ROCK2 vs ROCK1
Chain of GST-tagged human ROCK2 catalytic domain 1-553 (O75116 1-553): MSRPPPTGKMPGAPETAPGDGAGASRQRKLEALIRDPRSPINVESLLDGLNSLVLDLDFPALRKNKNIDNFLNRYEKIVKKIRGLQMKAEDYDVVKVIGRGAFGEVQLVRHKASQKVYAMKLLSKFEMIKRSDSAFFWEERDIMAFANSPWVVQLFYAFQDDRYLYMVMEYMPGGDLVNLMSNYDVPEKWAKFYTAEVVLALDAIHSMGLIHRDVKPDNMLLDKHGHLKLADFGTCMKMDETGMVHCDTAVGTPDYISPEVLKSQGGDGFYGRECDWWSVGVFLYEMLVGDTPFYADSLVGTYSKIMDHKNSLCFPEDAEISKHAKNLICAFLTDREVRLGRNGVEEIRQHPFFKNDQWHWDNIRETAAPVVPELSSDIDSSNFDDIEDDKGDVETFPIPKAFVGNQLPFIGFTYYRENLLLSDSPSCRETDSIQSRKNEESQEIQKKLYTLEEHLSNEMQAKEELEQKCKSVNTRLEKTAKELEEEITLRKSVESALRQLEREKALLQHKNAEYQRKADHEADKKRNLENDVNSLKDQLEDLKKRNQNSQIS
Summary of the method: as §1

| Structure (SMILES) | IC50 [1] [µM] | IC50 [2] [µM] | Selectivity for ROCK2 over ROCK1 (IC50 ROCK1 / IC50 ROCK2) [2] |
| --- | --- | --- | --- |
| CC(=O)c1cccc(-c2nnc(Nc3ccc4[nH]ncc4c3Cl)s2)c1 [Example 35AM] | > 30 | < 1 | >100 |
| Cn1cc(C(=O)Nc2cc(-c3nnc(Nc4ccc5[nH]ncc5c4)s3)ccn2)cn1.O=C(O)C(F)(F)F [Example 35BY] | > 30 |  | >100 |
| Nc1ccnc(-c2nnc(Nc3ccc4[nH]ncc4c3)s2)c1.O=C(O)C(F)(F)F [Example 35CT] | > 30 | < 1 | >5 |
| Cc1cc(C(=O)Nc2cccc(-c3nnc(Nc4ccc5[nH]ncc5c4)s3)c2)no1 [Example A-40] | > 30 | < 1 | >100 |
| Nc1cccc(-c2nsc(Nc3ccc4[nH]ncc4c3)n2)c1 [Example 35CU] | > 30 | 1 to 15 | >5 |
| Brc1cc(-c2nnc(Nc3ccc4[nH]ncc4c3)s2)c2nccn2c1 [Example 52F] | > 30 | < 1 | >100 |
| COc1ncc(C(=O)Nc2cccc(-c3nnc(Nc4ccc5[nH]ncc5c4Cl)s3)c2)cn1.O=C(O)C(F)(F)F [Example 35AU] | > 30 | < 1 | >100 |
| COc1cccc(-c2nnc(N(CCO)c3ccc4[nH]ncc4c3)s2)c1 [Example A-21] | 15 to 30 | 15 to 30 | <5 |
| O=C(Nc1cccc(-c2nnc(Nc3ccc4[nH]ncc4c3)s2)c1)c1cccnc1 [Example A-50] | > 30 | < 1 | >100 |
| CC(C)(O)CNC(=O)c1cccc(-c2nnc(Nc3ccc4[nH]ncc4c3Cl)s2)c1 [Example 75F] | 1 to 15 | < 1 | >5 |
| O=[N+]([O-])c1cccc(-c2nnc(Nc3ccc4[nH]ncc4c3)s2)c1 [Example 75O] | 1 to 15 | 1 to 15 |  |
| CC(=O)c1cc(-c2nnc(Nc3ccc4[nH]ncc4c3Cl)s2)ccn1 [Example 35CV] | 1 to 15 | < 1 | >50 |
| CCS(=O)(=O)Nc1cncc(-c2nnc(Nc3ccc4[nH]ncc4c3)s2)c1.O=C(O)C(F)(F)F [Example 35CN] | 1 to 15 | 1 to 15 | >5 |
| O=C(O)C(F)(F)F.O=C(O)CS(=O)(=O)Nc1cccc(-c2nnc(Nc3ccc4[nH]ncc4c3)s2)c1 [Example 35CD] | 1 to 15 | 1 to 15 | <5 |
| Cn1cc(C(=O)Nc2ccc(-c3nnc(Nc4ccc5[nH]ncc5c4)s3)cc2)cn1 [Example A-27] | > 30 | > 30 | <5 |
| O=C(O)C(F)(F)F.Oc1cccc(-c2cccc(-c3nnc(Nc4ccc5[nH]ncc5c4Cl)s3)c2)n1 [Example 46B] | > 30 | < 1 | >100 |
| NC1CCN(C(=O)Nc2cccc(-c3nnc(Nc4ccc5[nH]ncc5c4)s3)c2)C1 (stereo not drawn) [Example A-35] | 1 to 15 | < 1 | <5 |
| CC(=O)Nc1cc(CN2CCOCC2)cc(-c2nnc(Nc3ccc4[nH]ncc4c3Cl)s2)c1.O=C(O)C(F)(F)F [Example 48D] | 1 to 15 | < 1 | >5 |
| Cn1ccnc1CC(=O)Nc1cccc(-c2nnc(Nc3ccc4[nH]ncc4c3Cl)s2)c1 [Example 35BL] | > 30 | < 1 | >100 |
| CC(=O)Nc1cccc(-c2nnc(Nc3ccc4[nH]ncc4c3C)s2)c1 [Example 35J] | 1 to 15 | < 1 | >5 |
| NCCS(=O)(=O)Nc1cccc(-c2nnc(Nc3ccc4[nH]ncc4c3)s2)c1 [Example A-1] | 1 to 15 | 1 to 15 | <5 |
| Clc1c(Nc2nnc(-c3cccn4cc(C5CCNCC5)nc34)s2)ccc2[nH]ncc12 [Example 50H] | 1 to 15 | < 1 | >5 |
| CC(=O)Nc1cc(C(=O)N2CCC(C(=O)O)CC2)cc(-c2nnc(Nc3ccc4[nH]ncc4c3Cl)s2)c1 [Example 48Q] | 1 to 15 | < 1 | >5 |
| CC(=O)Cc1cccc(-c2nnc(Nc3ccc4[nH]ncc4c3Cl)s2)c1 [Example 35AF] | 1 to 15 | < 1 | >5 |
| Clc1c(Nc2nnc(-c3cccc(-c4nccs4)c3)s2)ccc2[nH]ncc12 [Example 46I] | > 30 | < 1 | >100 |
| NC(=O)c1cc(-c2ncco2)cc(-c2nnc(Nc3ccc4[nH]ncc4c3Cl)s2)c1 [Example 46L] | > 30 | < 1 | >100 |
| CC(=O)Nc1cc(F)c(F)c(-c2nnc(Nc3ccc4[nH]ncc4c3Cl)s2)c1.O=C(O)C(F)(F)F [Example 35BB] | > 30 | < 1 | >100 |
| CC(=O)Oc1cccc(-c2nnc(Nc3ccc4[nH]ncc4c3Cl)s2)c1 [Example 35AG] | > 30 | < 1 | >100 |
| c1cc2[nH]ncc2cc1Nc1nnc(C2CCCNC2)s1 (stereo not drawn) [Example A-33] | 15 to 30 | 1 to 15 | <5 |

Next, values leading:

| IC50 [1] [µM] | IC50 [2] [µM] | Selectivity for ROCK2 over ROCK1 (IC50 ROCK1 / IC50 ROCK2) [2] | Structure (SMILES) |
| --- | --- | --- | --- |
| < 1 | < 1 | >5 | O=C(Nc1cccc(-c2nnc(Nc3ccc4[nH]ncc4c3)s2)c1)c1cnn(CC(O)CO)c1 (stereo not drawn) [Example 35CG] |
| < 1 | < 1 | >5 | CC(C)(C)C(=O)Nc1cccc(-c2nnc(Nc3ccc4[nH]ncc4c3Cl)s2)c1 [Example 35O] |
| < 1 | < 1 | >5 | CSc1ccc(NC(C)=O)cc1-c1nnc(Nc2ccc3[nH]ncc3c2Cl)s1 [Example 48F] |
| 1 to 15 | < 1 | >5 | CCN(CC)Cc1cc(NC(C)=O)cc(-c2nnc(Nc3ccc4[nH]ncc4c3Cl)s2)c1.O=C(O)C(F)(F)F [Example 48A] |
| 1 to 15 | 1 to 15 |  | O=C(O)COc1cccc(-c2nnc(Nc3ccc4[nH]ncc4c3)s2)c1 [Example 35CO] |
| 1 to 15 | 1 to 15 | <5 | O=[N+]([O-])c1cccc(-c2nnc(Nc3ccc4[nH]ncc4c3)s2)c1 [Example A-45] |
| 1 to 15 | < 1 | >5 | CC(C)(C)CC(=O)Nc1cccc(-c2nnc(Nc3ccc4[nH]ncc4c3Cl)s2)c1 [Example 35M] |
| 1 to 15 | < 1 | >5 | CN(C)Cc1cc(-c2ncco2)cc(-c2nnc(Nc3ccc4[nH]ncc4c3Cl)s2)c1 [Example 75P] |
| < 1 | < 1 | >5 | CN1CCN(C(=O)Nc2ccc(-c3nnc(Nc4ccc5[nH]ncc5c4Cl)s3)cc2)CC1 [Example 75D] |
| < 1 | < 1 | <5 | N[C@@H](Cc1ccc(O)cc1)C(=O)Nc1cccc(-c2nnc(Nc3ccc4[nH]ncc4c3Cl)s2)c1.O=C(O)C(F)(F)F [Example 35AK] |
| < 1 | < 1 | >5 | COc1cccc(C(=O)Nc2cccc(-c3nnc(Nc4ccc5[nH]ncc5c4Cl)s3)c2)c1 [Example 35BT] |
| 1 to 15 | < 1 | >5 | NC(Cc1ccc(Cl)cc1)C(=O)Nc1cccc(-c2nnc(Nc3ccc4[nH]ncc4c3Cl)s2)c1 (stereo not drawn) [Example 35BF] |
| < 1 | < 1 | >5 | CC(=O)Nc1cc(C(=O)NCC(O)CO)cc(-c2nnc(Nc3ccc4[nH]ncc4c3Cl)s2)c1 (stereo not drawn) [Example 48W] |
| < 1 | < 1 | >5 | CCc1cn2cccc(-c3nnc(Nc4ccc5[nH]ncc5c4Cl)s3)c2n1 [Example 52D] |
| < 1 | < 1 | >5 | Clc1c(Nc2nnc(-c3cccn4cc(C5CCCO5)nc34)s2)ccc2[nH]ncc12 (stereo not drawn) [Example 50C] |
| < 1 | < 1 | >5 | CNCc1ccc(C(=O)Nc2cccc(-c3nnc(Nc4ccc5[nH]ncc5c4)s3)c2)cn1 [Example 75K] |
| < 1 | < 1 | >5 | CC(C)C(=O)Nc1cccc(-c2nnc(Nc3ccc4[nH]ncc4c3Cl)s2)c1 [Example 35V] |
| < 1 | < 1 | >5 | CC1CCN(C(=O)Nc2cccc(-c3nnc(Nc4ccc5[nH]ncc5c4)s3)c2)C1 (stereo not drawn) [Example A-28] |
| < 1 | < 1 | >5 | O=C(Cc1cnccn1)Nc1cccc(-c2nnc(Nc3ccc4[nH]ncc4c3Cl)s2)c1 [Example 35BP] |
| < 1 | < 1 | >50 | O=C(Cc1ccc(F)cc1)Nc1cccc(-c2nnc(Nc3ccc4[nH]ncc4c3Cl)s2)c1 [Example 35BO] |
